Test results: PubChem BioAssay (NCI)
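Tested at 5 concentrations; 48 h exposure; 96-well plates; endpoints linearly interpolated, else capped at highest concentration. At the TGI there is no net growth.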

Legend:
Experiment in all cases: DTP human tumour cell line panel, 48 h
[1] = tested on: NCI-H226 lung
[2] = tested on: SNB-78 CNS
[3] = tested on: 786-0 renal
[4] = tested on: NCI-H23 lung
[5] = tested on: CCRF-CEM leukemia
[6] = tested on: XF 498 CNS
[7] = tested on: HOP-62 NSCLC
[8] = tested on: LXFL 529 NSCLC
[9] = tested on: HOP-92 NSCLC
[10] = tested on: KM20L2 colon
[11] = tested on: NCI-H460 lung
[12] = tested on: MALME-3M melanoma
[13] = tested on: EKVX NSCLC
[14] = tested on: SNB-75 CNS
[15] = tested on: TK-10 renal
[16] = tested on: A498 renal
[17] = tested on: CAKI-1 renal
[18] = tested on: ACHN renal
[19] = tested on: SK-MEL-2 melanoma
[20] = tested on: U251 CNS
[21] = tested on: COLO 205 colon
[22] = tested on: SN12C renal
[23] = tested on: RXF-631 renal
[24] = tested on: HCT-15 colon
[25] = tested on: UACC-257 melanoma
[26] = tested on: OVCAR-5 ovarian
[27] = tested on: MOLT-4 leukemia
[28] = tested on: K-562 leukemia
[29] = tested on: SF-295 CNS
[30] = tested on: M19-MEL melanoma
[31] = tested on: SK-OV-3 ovarian
[32] = tested on: DLD-1 colon
[33] = tested on: M14 melanoma
[34] = tested on: DMS 273 small cell lung
[35] = tested on: SNB-19 CNS
[36] = tested on: NCI-H522 lung
[37] = tested on: OVCAR-4 ovarian
[38] = tested on: A549 NSCLC
[39] = tested on: OVCAR-8 ovarian
[40] = tested on: HCC-2998 colon
[41] = tested on: HL-60(TB) leukemia
[42] = tested on: UO-31 renal
[43] = tested on: UACC-62 melanoma
[44] = tested on: LOX IMVI melanoma
[45] = tested on: IGROV1 ovarian
[46] = tested on: DMS 114 small cell lung
[47] = tested on: HT29 colon
[48] = tested on: SK-MEL-28 melanoma
[49] = tested on: HCT-116 colon
[50] = tested on: RPMI-8226 leukemia
[51] = tested on: SK-MEL-5 melanoma
[52] = tested on: KM12 colon
[53] = tested on: HOP-18 NSCLC
[54] = tested on: OVCAR-3 ovarian
[55] = tested on: SW-620 colon
[56] = tested on: SF-268 CNS
[57] = tested on: SF-539 CNS
[58] = tested on: SR leukemia
[59] = tested on: RXF 393 renal

Measured: TGI

O=C(O)C1CCC(=O)N1C(=O)C(Cl)c1ccccc1 (centres undefined)
> 100 µM: [1] | [2] | [3] | [4] | [5] | [6] | [7] | [8] | [9] | [10] | [11] | [12] | [13] | [14] | [15] | [16] | [17] | [18] | [19] | [20] | [21] | [22] | [23] | [24] | [25] | [26] | [27] | [28] | [29] | [30] | [31] | [32] | [33] | [34] | [35] | [36] | [37] | [38] | [39] | [40] | [41] | [42] | [43] | [44] | [45] | [46] | [47] | [48] | [49] | [50] | [51] | [52] | [53] | [54] | [55] | [56]

OCn1nc2c(C3OCCO3)cc3ccccc3n2c1=S
> 100 µM: [1] | [2] | [3] | [4] | [5] | [6] | [7] | [8] | [9] | [10] | [11] | [12] | [13] | [14] | [15] | [16] | [57] | [17] | [18] | [19] | [20] | [21] | [58] | [22] | [23] | [24] | [25] | [26] | [27] | [28] | [29] | [30] | [31] | [32] | [33] | [34] | [35] | [36] | [37] | [38] | [39] | [41] | [42] | [43] | [44] | [45] | [46] | [47] | [59] | [48] | [49] | [50] | [51] | [52] | [53] | [54] | [55] | [56]

Nc1ccc(C(=O)N/C(=C\C=C\c2ccco2)c2nc3c4c(ccc3[nH]2)C(=O)c2ccccc2C4=O)cc1
62.1 µM: [14]
55.6 µM: [27]
> 100 µM: [2] | [3] | [4] | [5] | [6] | [7] | [8] | [9] | [10] | [12] | [13] | [16] | [57] | [17] | [20] | [21] | [22] | [23] | [24] | [25] | [26] | [28] | [29] | [30] | [33] | [34] | [35] | [36] | [37] | [39] | [40] | [43] | [44] | [45] | [46] | [47] | [48] | [49] | [50] | [51] | [52] | [53] | [54] | [55] | [56]
78.6 µM: [19]
81.3 µM: [31]
17.9 µM: [42]
97 µM: [38]
82 µM: [15] | [18]
58.3 µM: [32]
95 µM: [59]
